# “And” between values parts separate entries of the source, which are not always exact repeats. Equal entries are not always repeated.
# Target: T1, human GPR40 (Homo sapiens, UniProt O14842)
# T1 construct: expressed in transfected cells
# Assay: GPR40 calcium flux assay (hGPR40 Ca2+ Assay)
# Assay type: cell-based
# Conditions: transfected HEK293 cells stably expressing human GPR40; Fluo 8 calcium dye; multiple values = repeated testing; read-out: hGPR40 Ca^2+ Assay EC50
# Protocol: Compounds were tested in a calcium flux assay using transfected HEK293 cells stably expressing either human GPR40 or rat GPR40. Human GPR40 expressing cells were cultured in DMEM-High Glucose media supplemented with 10% fetal bovine serum, 1× L-Glutamine, 1× Penicillin/Streptomycin and 500 μg/mL G418. Rat GPR40 expressing cells were cultured in DMEM-High Glucose media supplemented with 10% fetal bovine serum and 1 μg/mL puromycin. Cells were plated into poly-D-lysine coated 384-well plates and cultured overnight in a 37° C. humidified tissue culture incubator under 5% CO2/[…] atmosphere. On the day of the experiment, the culture media was replaced with assay buffer (HBSS, 20 mM HEPES, 0.1% BSA) and the cells incubated at 37° C. for 1 h. Calcium-sensitive fluorescent dye (Fluo 8 No-Wash Calcium Dye, ABD Bioquest) was then added and the cells incubated for another 30 min at 37° C. followed by 15 min at room temperature while protected from the light. The cell plate and a plate of diluted compounds of Formula (III) were loaded into a fluorescent plate reader that added compounds onto the cells while measuring the fluorescence intensity of each well. The plate reader recorded fluorescence intensity at 1 second intervals for 8 min and provided the data for analysis in an Excel format. EC50 values were calculated using Prism (GraphPad) software.
# T1 sequence (O14842 whole entry): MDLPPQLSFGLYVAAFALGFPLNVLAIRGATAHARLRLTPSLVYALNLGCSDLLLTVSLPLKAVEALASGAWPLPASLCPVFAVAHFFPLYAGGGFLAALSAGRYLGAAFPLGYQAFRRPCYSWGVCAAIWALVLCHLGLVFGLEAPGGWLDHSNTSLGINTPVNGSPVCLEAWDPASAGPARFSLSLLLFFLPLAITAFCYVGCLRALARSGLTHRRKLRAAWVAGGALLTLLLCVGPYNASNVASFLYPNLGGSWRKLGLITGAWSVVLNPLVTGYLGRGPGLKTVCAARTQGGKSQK
row,Compound,EC50
1,"COc1ccc(F)c(-n2nnc(COc3cc(C(CC(=O)O)C4CC4)ccn3)c2C2=CCCC2(C)C)c1 (racemic) [Cpd 63, 3-cyclopropyl-3-[2-[[5-(5,5-dimethylcyclopenten-1-yl)-1-(2-fluoro-5-methoxy-phenyl)triazol-4-yl]methoxy]-4-pyridyl]propanoic acid]",1 nM
2,"COc1ccc(F)c(-n2nnc(COc3cc([C@@H](CC(=O)O)C4CC4)ccn3)c2C2=CCCC2(C)C)c1 [Cpd 64, (3S)-3-cyclopropyl-3-[2-[[5-(5,5-dimethylcyclopenten-1-yl)-1-(2-fluoro-5-methoxy-phenyl)triazol-4-yl]methoxy]-4-pyridyl]propanoic acid]",1 nM
3,"COc1ccc(F)c(-n2ncc(COc3cc(C(CC(=O)O)C4CC4)ccn3)c2C2=CCCC2(C)C)c1 (centres unmarked) [Cpd 65, 3-cyclopropyl-3-[2-[[5-(5,5-dimethylcyclopenten-1-yl)-1-(2-fluoro-5-methoxy-phenyl)pyrazol-4-yl]methoxy]-4-pyridyl]propanoic acid]",1 nM
4,"COc1ccc(F)c(-n2ncc(COc3cccc([C@@H](CC(=O)O)C4CC4)c3)c2C2=CCCC2(C)C)c1 [Cpd 66, (3S)-3-cyclopropyl-3-[3-[[5-(5,5-dimethylcyclopenten-1-yl)-1-(2-fluoro-5-methoxy-phenyl)pyrazol-4-yl]methoxy]phenyl]propanoic acid]",2 nM and 1 nM
5,"COc1ccc(F)c(-n2nnc(COc3cccc([C@@H](CC(=O)O)C4CC4)c3)c2OC2CCCC2)c1 [Cpd 67, (3S)-3-[3-[[5-(cyclopentoxy)-1-(2-fluoro-5-methoxy-phenyl)triazol-4-yl]methoxy]phenyl]-3-cyclopropyl-propanoic acid]",6 nM and 10 nM (2×)
6,"COc1ccc(F)c(-n2ncc(COc3cc(C(CC(=O)O)C4CC4)c(Cl)cn3)c2C2=CCCC2(C)C)c1 (centres unmarked) [Cpd 71, 3-[5-chloro-2-[[5-(5,5-dimethylcyclopenten-1-yl)-1-(2-fluoro-5-methoxy-phenyl)pyrazol-4-yl]methoxy]-4-pyridyl]-3-cyclopropyl-propanoic acid]",24 nM
7,"COc1ccc(F)c(-n2cc(COc3cccc([C@@H](CC(=O)O)C4CC4)c3)cn2)c1 [Cpd 72, (3S)-3-cyclopropyl-3-[3-[[1-(2-fluoro-5-methoxy-phenyl)pyrazol-4-yl]methoxy]phenyl]propanoic acid]",24 nM and 45 nM and 39 nM
8,"COc1ccc(F)c(-n2ncc(COc3cccc([C@@H](CC(=O)O)C4CC4)c3)c2N2CCOCC2)c1 [Cpd 73, (3S)-3-cyclopropyl-3-[3-[[1-(2-fluoro-5-methoxy-phenyl)-5-morpholino-pyrazol-4-yl]methoxy]phenyl]propanoic acid]",27 nM
9,"COc1ccc(F)c(-n2nnc(COc3cc([C@H](CC(=O)O)C4CC4)ccn3)c2C2=CCCC2(C)C)c1 [Cpd 75, (3R)-3-cyclopropyl-3-[2-[[5-(5,5-dimethylcyclopenten-1-yl)-1-(2-fluoro-5-methoxy-phenyl)triazol-4-yl]methoxy]-4-pyridyl]propanoic acid]",60 nM
10,"COc1ccc(F)c(-n2nnc(COc3cc(C(CC(=O)O)C4CC4)c(Cl)cn3)c2C2=CCCC2(C)C)c1 (centres unmarked) [Cpd 78, 3-[5-chloro-2-[[5-(5,5-dimethylcyclopenten-1-yl)-1-(2-fluoro-5-methoxy-phenyl)triazol-4-yl]methoxy]-4-pyridyl]-3-cyclopropyl-propanoic acid]",69 nM

# Results, then the compound that gave them:
row,EC50,Compound
1,14 nM,"COc1ccc(F)c(-n2nnc(COc3cccc([C@@H](CC(=O)O)C4CC4)c3)c2N2CCCCC2)c1 [Cpd 44, (3S)-3-cyclopropyl-3-[3-[[1-(2-fluoro-5-methoxy-phenyl)-5-(1-piperidyl)triazol-4-yl]methoxy]phenyl]propanoic acid]"
2,7 nM and 12 nM and 11 nM,"COc1ccc(F)c(-n2nnc(COc3cccc([C@@H](CC(=O)O)C4CC4)c3)c2N2CC3(CCC3)C2)c1 [Cpd 68, (3S)-3-[3-[[5-(6-azaspiro[3.3]heptan-6-yl)-1-(2-fluoro-5-methoxy-phenyl)triazol-4-yl]methoxy]phenyl]-3-cyclopropyl-propanoic acid]"
3,15 nM and 21 nM and 17 nM,"COc1ccc(F)c(-n2ncc(COc3cccc([C@@H](CC(=O)O)C4CC4)c3)c2C2CC2)c1 [Cpd 69, (3S)-3-cyclopropyl-3-[3-[[5-cyclopropyl-1-(2-fluoro-5-methoxy-phenyl)pyrazol-4-yl]methoxy]phenyl]propanoic acid]"
4,16 nM,"COc1cc(-n2ncc(COc3cccc([C@@H](CC(=O)O)C4CC4)c3)c2C2CC2)c(F)cn1 [Cpd 70, (3S)-3-cyclopropyl-3-[3-[[5-cyclopropyl-1-(5-fluoro-2-methoxy-4-pyridyl)pyrazol-4-yl]methoxy]phenyl]propanoic acid]"
5,38 nM,"COc1ccc(F)c(-n2nnc(/C=C/c3cccc([C@@H](CC(=O)O)C4CC4)c3)c2C2CC2)c1 [Cpd 74, (3S)-3-cyclopropyl-3-[3-[(E)-2-[5-cyclopropyl-1-(2-fluoro-5-methoxy-phenyl)triazol-4-yl]vinyl]phenyl]propanoic acid]"
6,66 nM,"COc1ccc(F)c(-n2ncc(/C=C/c3cccc(C(CC(=O)O)C4CC4)c3)c2C2CC2)c1 (centres unmarked) [Cpd 76, 3-cyclopropyl-3-[3-[(E)-2-[5-cyclopropyl-1-(2-fluoro-5-methoxy-phenyl)pyrazol-4-yl]vinyl]phenyl]propanoic acid]"
7,66 nM,"COc1ccc(F)c(-n2ncc(CCc3cccc(C(CC(=O)O)C4CC4)c3)c2C2CC2)c1 (centres unmarked) [Cpd 77, 3-cyclopropyl-3-[3-[2-[5-cyclopropyl-1-(2-fluoro-5-methoxy-phenyl)pyrazol-4-yl]ethyl]phenyl]propanoic acid]"
8,103 nM,"COc1ccc(F)c(-n2nnc(CCc3cccc([C@@H](CC(=O)O)C4CC4)c3)c2C2CC2)c1 [Cpd 79, (3S)-3-cyclopropyl-3-[3-[2-[5-cyclopropyl-1-(2-fluoro-5-methoxy-phenyl)triazol-4-yl]ethyl]phenyl]propanoic acid]"
9,273 nM,"COc1ccc(F)c(-n2nnc(COc3cccc([C@@H](CC(=O)O)C4CC4)c3)c2N2CCOCC2)c1 [Cpd 80, (3S)-3-cyclopropyl-3-[3-[[1-(2-fluoro-5-methoxy-phenyl)-5-morpholino-triazol-4-yl]methoxy]phenyl]propanoic acid]"
10,261 nM and 248 nM,"COc1ccc(F)c(-n2nnc(COc3cccc([C@@H](CC(=O)O)C4CC4)c3)c2C)c1 [Cpd 82, (3S)-3-cyclopropyl-3-[3-[[1-(2-fluoro-5-methoxy-phenyl)-5-methyl-triazol-4-yl]methoxy]phenyl]propanoic acid]"
11,7 nM and 6 nM,"COc1ccc(F)c(-n2nnc(COc3cccc([C@@H](CC(=O)O)C4CC4)c3)c2CC(C)C)c1 [Cpd 83, (3S)-3-cyclopropyl-3-[3-[[1-(2-fluoro-5-methoxy-phenyl)-5-isobutyl-triazol-4-yl]methoxy]phenyl]propanoic acid]"
12,38 nM and 31 nM and 37 nM (2×),"COc1ccc(F)c(-n2nnc(COc3cccc([C@@H](CC(=O)O)C4CC4)c3)c2C=C(C)C)c1 [Cpd 84, (3S)-3-cyclopropyl-3-[3-[[1-(2-fluoro-5-methoxy-phenyl)-5-(2-methylprop-1-enyl)triazol-4-yl]methoxy]phenyl]propanoic acid]"
13,65 nM and 63 nM,"COc1ccc(F)c(-n2nnc(COc3cccc([C@@H](CC(=O)O)C4CC4)c3)c2C2CC2)c1 [Cpd 85, (3S)-3-cyclopropyl-3-[3-[[5-cyclopropyl-1-(2-fluoro-5-methoxy-phenyl)triazol-4-yl]methoxy]phenyl]propanoic acid]"
